# Read-outs that look alike come from different tables or passages of the source.
# How the values were obtained:
# [1] = tested on: neutrophils; experiment: Neutrophil chemiluminescence assay (opsonized CPPD crystals or zymosan); type: cell-based, human; conditions: Homo sapiens, Neutrophil, 28 μM, read-out: inhibition of the peak chemiluminescence response
# Description: All experiments that studied neutrophil responses to crystals or zymosan in the presence of paclitaxel were performed using plasma opsonized CPPD or zymosan. Opsonization of crystals or zymosan was done with 50% heparinized plasma at a concentration of 75 mg of CPPD or 12 mg of zymosan per ml of 50% plasma Crystals or zymosan were incubated with plasma for 30 minutes at 37° C. and then washed in excess HBSS.
# Neutrophil viability and purity was always greater than 90%.
# A stock solution of LY290181 at 100 μM in HBSS was freshly prepared.
# All chemiluminescence studies were performed at a cell concentration of 5,000,000 cells/ml in HBSS with CPPD (50 mg/ml). In all experiments 0.5 ml of cells was added to 25 mg of CPPD or 0.5 mg of zymosan in 1.5 ml capped Eppendorf tubes. 10 μl of luminol dissolved in 25% DMSO in HBSS was added to a final concentration of 1 μM and the samples were mixed to initiate neutrophil activation by the crystals or zymosan. Chemiluminescence was monitored using an LKB Luminometer (Model 1250) at 37° C. for 20 minutes with shaking immediately prior to measurements to resuspend the crystals or zymosan. Control tubes contained cells, drug and luminol (crystals absent).
# [2] = tested on: AP-1 DNA binding activity; experiment: IL-1 induced AP-1 DNA binding (gel mobility shift); type: cell-based; conditions: 10^−7 to 10^−5 M, pretreated 24 hours
# Description: Binding activity was assayed with a radiolabeled human AP-1 sequence probe and gel mobility shift assay. […] The “com” lane contains excess unlabeled AP-1 oligonucleotide. The results shown are representative of tree independent experiments.
# [3] = tested on: stromelysin (MMP-3) mRNA; experiment: IL-1 induced stromelysin mRNA expression in chondrocytes (Northern blot); type: cell-based
# Description: The blots were subsequently stripped and reprobed with ^32P-radiolabeled rat GAPDH cDNA, which was used as a housekeeping gene. […] The MMP-1 and MMP-3 expression levels were normalized with GAPDH.
# [4] = tested on: NF-κB; experiment: NF-κB activity (cell-based) reporter assay in NIH-3T3; set-up: species or system murine; conditions: 6-hour and 24-hour treatments
# Description: IL-1 and TNF were both identified as being proinflammatory cytokines that activate the transcription of genes driven by a transcription factor named NF-κB also involved in inflammatory processes. The inflammatory effect of IL-1 and TNF can therefore be indirectly assessed by means of a reporter gene assay (NF-κB) responding to IL-1 and TNF stimulation.
# On day one, 5×10^4 NIH-3T3 (murine fibroblast), stably transfected with a NF-κB reporter construct (Luciferase, Promega Corp.), were plated per well (24-well plate). Once confluent (on day 3-4), cells were starved by replacing the complete medium with 1 ml of serum-free medium. Following a 24-hour starvation, cells were treated with various concentrations of anti-microtubule agents 6 hours prior to the addition of IL-1 (20 ng/ml) and TNF (20 ng/ml). Cells were exposed to IL-1 and TNF for 1 hour and 16 hours and NF-κB activity measured 24 hours later. On day five, the medium was discarded and the cells were rinsed once with PBS. Cells were then extracted for 15 minutes with 250 μl of lysis buffer (Promega Corp., Wisconsin). NF-κB transcriptional activity was assessed by adding 25 μl of luciferase substrate to a tube containing 2.5 μl of cell extract. The tube was immediately inserted in a luminometer (Turner Designs) and light emission measured for 10 seconds. The luciferase data were then normalized for protein concentration.
# [5] = Stability of paclitaxel in cyclodextrin solutions; type: physicochemical
# Excerpt: The solutions containing 20% HPβCD or HPγCD had pH values of 3.9 and 5.2, respectively.
# [6] = tested on: collagen-induced arthritis
# Description: Syngeneic female Louvain rats weighing 120 to 150 grams were injected intradermally with 0.5 mg of native chick collagen II (Genzyme, Boston, Mass.) solubilized in 0.1 M acetic acid and emulsified in FIA (Difco, Detroit, Mich.). […] The control and experimental animals were evaluated for disease severity both clinically and radiographically by individuals blinded to treatment groups.
# The severity of inflammation for each limb was evaluated daily and scored based on standardized levels of swelling and periarticular erythema (0 being normal and 4 severe). Animals were evaluated radiographically on day 28 of the experiment. The radiographs of both hind limbs were graded by the degree of soft tissue swelling, joint space narrowing, bone destruction, and periosteal new bone formation. A scale of 0-3 was used to quantify each limb (0=normal, 1=soft tissue swelling, 2=early erosions of bone, 3=severe bone destruction and/or ankylosis). Histological assessment of the joints was completed at the conclusion of the experiment.
# Delayed-type hypersensitivity (DTH) to CII was determined by a radiometric ear assay completed on day 28. Radiometric ear indices≧1.4 represent a significant response to CII. The presence of anti-CII IgG antibodies was determined by enzyme-linked immunosorbent assay (ELISA).
# [7] = tested on: MS symptoms; experiment: Demyelinating DM20 (ND4) transgenic mouse model of MS; type: in vivo; set-up: key to Seizures / Shaking / Hind Limb Paralysis / Head Tremors: 1+: slight but definite signs; 2+: increase in severity; 3+: signs worsened with limited movement; 4+: very severe signs with loss of motor control (moribund); conditions: micellar paclitaxel 2.5 mg/kg s.c. 3 times per week, 7 injections
# Excerpt: These transgenic mice contain 70 copies of the transgene DM20, a myelin proteolipid. Clinically, the animals appear normal up to 3 months of age. After 3 months, evidence of neurological pathology, such as seizures, shaking, hind limb mobility, unsteadiness of gait, limp tail, wobbly gait and reduction in the degree of activity, appear and progressively increase in severity until the animals die between 6 and 8 months of age.
# For both of these sets of experiments, dosing was initiated at the clinical onset of disease (approximately 3 to 4 months of age).
# Animals were injected with the first dose once the initial signs of MS had reached a score of 1+ for the symptom categories described. The clinical scores and body weight were determined on each injection day and continued three times a week until the end of the study period (6 months of age). Scoring was based on a 1+ to 4+ system, whereby 1+=slight but definite signs, 2+=increase in severity, 3+=signs worsened with limited movement and 4+=very severe signs with loss of motor control (moribund).
# Three additional transgenic mice were used as controls and received an equivalent dose of PBS. […] Furthermore, four normal mice were used as controls and administered equivalent volumes of PBS.
# [8] = tested on: subcutaneous tumors; experiment: Subcutaneous tumors in mice treated with paste; type: in vivo; conditions: paclitaxel/gelatin/PCL paste
# [9] = tested on: neutrophils; conditions: human, 1 h, 46 µM
# Description: Neutrophils were prepared from freshly collected human citrated whole blood. Briefly, 400 ml of blood were mixed with 80 ml of 4% dextran T500 (Phamacia LKB, Biotechnology AB Uppsala, Sweden) in HBSS and allowed to settle for 1 hour. Plasma was collected continuously and 5 ml applied to 5 ml of Ficoll Paque (Pharmacia) in 15 ml polypropylene tubes (Corning, N.Y.). Following centrifugation at 500 g for 30 minutes, the neutrophil pellets were washed free of erythrocytes by 20 seconds of hypotonic shock. Neutrophils were resuspended in HBSS, kept on ice and used for experiments within 3 hours. Neutrophil viability and purity was always greater than 90%.
# To determine the effect of the anti-microtubule agents on neutrophil viability the release of the cytoplasmic marker enzyme, lactate dehydrogenase (LDH) was measured. Control tubes containing cells with drug (crystals absent) from degranulation experiments were also assayed for LDH.
# [10] = transgenic mice, 6 months of age
smiles,measurement,setting,value
CC(=O)O[C@H]1C(=O)[C@@]2(C)[C@H]([C@H](OC(=O)c3ccccc3)[C@]3(O)C[C@H](OC(=O)[C@H](O)[C@@H](NC(=O)c4ccccc4)c4ccccc4)C(C)=C1C3(C)C)[C@]1(OC(C)=O)CO[C@@H]1C[C@@H]2O [paclitaxel],inhibition at 28 µM,[1]; plasma opsonized CPPD,52%
same,inhibition at 28 µM,[1]; plasma opsonized zymosan,45%
same,IL-1 induced AP-1 binding activity,[2],decreased
same,concentration inhibiting stromelysin expression in vitro,[3],10^−6 M
same,stromelysin mRNA levels,"[3]; 10^−5 M, pretreatment 24 hours, IL-1",complete inhibition
same,inhibitory effect on IL-1- and TNF-induced NF-κB activity,[4],~2 µM
same,degradation rate constant k,"[5]; 1 μg/ml paclitaxel, 1% HPβ-CD, 55° C.",0.00338 h⁻¹
same,degradation rate constant,"[5]; 10% HPβ-CD (FIG. 42: 20 μg/ml, 37° C., pH 3.7)",0.00178 h⁻¹
same,degradation rate constant,"[5]; 10% HPγ-CD (FIG. 42: 20 μg/ml, 37° C., pH 4.9)",0.00096 h⁻¹
same,radiographic disease,[6]; high- and low-dose suppression groups vs control,significantly less radiographic disease
same,clinical symptoms,"[6]; low- and high-dose suppression protocols, i.p. from day 9",significant clinical improvement
same,IgG antibodies to type II collagen (ELISA),[6]; paclitaxel-treated rats vs control group,significantly lower
same,radiographic changes / clinical arthritis,[6]; prevention protocol,None of the rats in the paclitaxel arthritis prevention protocol manifested any radiographic changes or clinical arthritis
same,development of arthritis,[6]; prevention protocol: 1 mg/kg i.p. from day 2,completely precluded development of the disease
same,toxic effects of the treatment,"[6]; rat, in vivo","few, if any toxic effects"
same,Head Tremors,[7]; normal mice,0
same,Hind Limb Paralysis,[7]; normal mice,0
same,Seizures,[7]; normal mice,0
same,Shaking,[7]; normal mice,0
same,Weight Change,[7]; normal mice,−0-5%
same,Weight Change,[7]; transgenic mice,+5-10%
same,Head Tremors,[7]; [10],1+
same,Hind Limb Paralysis,[7]; [10],1+
same,Seizures,[7]; [10],1+
same,Shaking,[7]; [10],1+
same,tumor mass,[8],significantly reduced the tumor mass
same,LDH release,[9],less than 5 % of total
